PMC10900215 (JACS Au, 2024)

Legend:
METTL3 = target: T1, METTL3 (Homo sapiens, UniProt Q86U44); test: Cellular degradation assay (Western blot), METTL3 in MOLM-13; type: cell-based; details: MOLM-13, 24 h, 2 μM compound
T1 construct: METTL3–14 degradation up to 70% of the endogenous level; endogenous in cells; host or cells: MOLM-13, PC3, DU145
Protocol: (§1) MOLM-13, NOMO-1, THP-1, Kasumi-1, PC3, and DU145 cell lines were obtained from DSMZ-German Collection of Microorganisms and Cell Cultures GmbH. Cells were cultured in RPMI 1640 medium (11875093, Thermo Fisher Scientific) containing 10% FBS (16140071, Thermo Fisher Scientific) and 1% penicillin-streptomycin (15140122, Thermo Fisher Scientific) in 5% CO2 at 37 °C in a humidified incubator, with maintained cell densities at 0.5–1 × 10^6 cells/mL. All cell lines were tested negative for mycoplasma contamination (PCR-based assay by Microsynth, Switzerland).
(§2) METTL3 (and METTL14) protein degradation was monitored by Western blot. Cells were treated with the indicated concentration of PROTACs or DMSO control (0.1% (v/v)) for 24h, 37 °C with 5% CO2. Samples were then collected and lysed with RIPA buffer with added protease inhibitors (11697498001, Roche). After SDS-PAGE, proteins were transferred to a nitrocellulose membrane, blocked (with 5% milk, 0.5% BSA in TBST buffer), and incubated overnight with primary antibodies. The following antibodies were used: GAPDH (no. 2118, Cell Signaling, 1:4000), β-actin (ab8226, Abcam, 1:2000), METTL3 (ab195352, Abcam, 1:1000), and METTL14 (ab220031, Abcam, 1:1000). Membranes were scanned using an LI-COR Odyssey DLx imager after incubation with appropriate secondary antibodies (antimouse IgG IRDye 680RD (926–68072, LI-COR, 1:10000) and goat anti-Rabbit IgG IRDye 800CW (926–32211, LI-COR, 1:10000)). Densitometry was performed in Image Studio Lite software and analyzed in GraphPad Prism 9.

METTL3-14 = METTL3-14 (Homo sapiens, UniProt Q86U44); test: biochemical; parameters: with the full-length complex, the recombinant complex construct pFastBacDual-StrepII-GFP-TEV-METTL3-His-TEV-METTL14 was expressed; StrepII (N); GFP (N); TEV site (N); made in house; host or cells: baculovirus/Sf9 insect cells; details: inhibition of catalytic activity of METTL3-14, binary FRET assay
METTL3-14, sequence (Q86U44 whole entry): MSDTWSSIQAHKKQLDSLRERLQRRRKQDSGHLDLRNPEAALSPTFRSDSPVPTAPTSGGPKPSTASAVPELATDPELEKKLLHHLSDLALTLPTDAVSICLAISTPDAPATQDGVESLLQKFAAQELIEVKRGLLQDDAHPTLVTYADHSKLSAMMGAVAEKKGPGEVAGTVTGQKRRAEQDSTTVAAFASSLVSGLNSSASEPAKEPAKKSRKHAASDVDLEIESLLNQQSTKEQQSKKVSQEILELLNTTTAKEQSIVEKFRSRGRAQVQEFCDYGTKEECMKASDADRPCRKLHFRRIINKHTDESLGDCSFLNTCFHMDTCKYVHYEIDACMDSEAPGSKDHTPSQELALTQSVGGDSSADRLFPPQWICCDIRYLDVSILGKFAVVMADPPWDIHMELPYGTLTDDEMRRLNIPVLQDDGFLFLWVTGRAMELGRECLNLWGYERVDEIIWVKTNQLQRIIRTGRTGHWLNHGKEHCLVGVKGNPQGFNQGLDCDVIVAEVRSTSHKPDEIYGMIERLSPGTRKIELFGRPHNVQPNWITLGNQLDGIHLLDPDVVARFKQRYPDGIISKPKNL
METTL3-14, sequence (Q9HCE5 whole entry, further chain): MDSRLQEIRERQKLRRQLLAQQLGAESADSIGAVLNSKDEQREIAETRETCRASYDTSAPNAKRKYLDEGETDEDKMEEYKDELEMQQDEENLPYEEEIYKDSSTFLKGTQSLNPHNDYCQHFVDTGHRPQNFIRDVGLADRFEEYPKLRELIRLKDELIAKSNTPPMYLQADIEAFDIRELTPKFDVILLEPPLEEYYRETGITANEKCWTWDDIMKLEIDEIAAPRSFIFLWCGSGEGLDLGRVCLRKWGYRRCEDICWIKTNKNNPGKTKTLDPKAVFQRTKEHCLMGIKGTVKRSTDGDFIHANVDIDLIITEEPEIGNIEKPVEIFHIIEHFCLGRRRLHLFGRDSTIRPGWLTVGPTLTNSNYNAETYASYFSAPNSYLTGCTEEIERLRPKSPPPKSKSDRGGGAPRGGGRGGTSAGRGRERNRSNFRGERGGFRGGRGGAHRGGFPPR
Description: For determining the half maximal inhibitory concentration (IC50) with the full-length complex, the recombinant complex construct pFastBacDual-StrepII-GFP-TEV-METTL3-His-TEV-METTL14 was expressed using the baculovirus/Sf9 insect cell expression system and purified as described previously.[21]
The inhibitory potencies of the PROTACs for METTL3 were quantified by a homogeneous time-resolved fluorescence (HTRF)-based enzyme assay as previously described.[40]

[1] = target: T2, ternary complex CRBN/PROTAC/METTL3–14 (Homo sapiens, UniProt Q86U44+Q96SW2); test: FRET-based ternary complex formation assay (TCFA); type: binding; details: for TCFA amplitude (mean ± SEM): Hook curve amplitude, fraction of the maximum of compound 16; for ECmax (nM) ± SD: PROTAC concentration at the maximum of the signal in the TCFA
T2 construct: methyltransferase domains (MTD) of METTL3 (residues 354–580); His6 (N, cleaved yes); made in house; host or cells: METTL3-MTD/METTL14-MTD: baculovirus/Sf9; CRBN-TBD: E. coli Rosetta (DE3), co-expressed with BirA
T2 sequence (Q86U44 354-580): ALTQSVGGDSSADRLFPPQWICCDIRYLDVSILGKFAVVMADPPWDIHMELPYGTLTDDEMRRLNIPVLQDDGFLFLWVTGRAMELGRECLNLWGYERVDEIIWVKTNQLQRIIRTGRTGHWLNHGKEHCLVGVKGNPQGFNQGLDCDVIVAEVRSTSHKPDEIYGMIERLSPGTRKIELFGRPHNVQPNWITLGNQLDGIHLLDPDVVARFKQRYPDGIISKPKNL
T2 sequence (Q9HCE5 107-395 partner limits assumed): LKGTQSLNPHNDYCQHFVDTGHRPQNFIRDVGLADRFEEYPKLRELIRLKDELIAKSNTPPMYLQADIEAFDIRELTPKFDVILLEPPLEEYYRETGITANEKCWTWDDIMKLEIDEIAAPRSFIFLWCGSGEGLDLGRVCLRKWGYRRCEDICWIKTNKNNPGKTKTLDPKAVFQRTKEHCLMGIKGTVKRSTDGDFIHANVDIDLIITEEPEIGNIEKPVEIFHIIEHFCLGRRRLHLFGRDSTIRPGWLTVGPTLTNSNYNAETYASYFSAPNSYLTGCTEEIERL
T2 sequence (Q96SW2 318-442): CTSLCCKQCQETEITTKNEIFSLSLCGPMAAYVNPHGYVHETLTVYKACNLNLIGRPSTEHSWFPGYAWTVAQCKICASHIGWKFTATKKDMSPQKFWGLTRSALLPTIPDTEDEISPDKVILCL
Protocol: For protein expression, suspension cultures of Sf9 cells in […] medium (Thermo Fisher) were infected at a density of 2 × 10^6 mL^–1. […] The complex was further purified by size exclusion chromatography using a Superdex 200 Increase 10/300 GL column (Cytiva) in 20 mM Tris-Cl, pH 8.0, and 200 mM KCl. The complex was aliquoted and flash-frozen in liquid nitrogen and stored at −80 °C until further use.
Ternary complex formation between the PROTACs, METTL3, and CRBN was quantified by a homogeneous time-resolved fluorescence (HTRF)-based enzyme assay. […] Curves of titrations with the PROTACs were plotted in GraphPad Prism 9.5.1 and fitted with a Gaussian function, if appropriate. […] CRBN^TBD-Avi(biotin) was used at a final concentration of 10 nM. […] Anti-GST Eu^3+-labeled antibody (Cisbio, 61GSTKLB) was used at a final concentration of 0.8 nM. The final reaction volume was 20 μL in 50 mM HEPES (pH 7.5), 150 mM NaCl, 0.1% BSA, 100 mM KF. […] The ratio of the emissions [drawing 1] was considered for further analysis. […] The concentrations resulting in the maximum signal (ECmax) and the amplitudes of the Hook curves were determined from the parameters of the Gaussian fit (if appropriate) or as the coordinates of the data-point with the highest TR-FRET signal.
For the ternary complex formation assay (TCFA), one of the protein partners must have a GST-tag and the other a biotin-tag.

[2] = Cell viability assay (CellTiter-Glo) on MOLM-13; type: cell-based; details: human, MOLM-13 cells, average of two biological replicates; for viability at 72 h, […]: 2.5 µM
Protocol: as §1
Cell viability was determined using a CellTiter-Glo luminescent cell viability assay (Promega) based on the detection of ATP according to the manufacturer’s instructions. 100 μL of the reagent was added to each well and incubated for 10 min at room temperature. […] Background luminescence value was obtained from wells containing the CellTiter-Glo reagent and medium without cells. The resulting data was analyzed in GraphPad Prism 9.

METTL14 = test: Cellular degradation assay (Western blot), METTL14 in MOLM-13; type: cell-based, human; details: MOLM-13, 24 h, 2 μM compound
Protocol: as §1, §2

T1 sequence (Q86U44 2-580 limits assumed): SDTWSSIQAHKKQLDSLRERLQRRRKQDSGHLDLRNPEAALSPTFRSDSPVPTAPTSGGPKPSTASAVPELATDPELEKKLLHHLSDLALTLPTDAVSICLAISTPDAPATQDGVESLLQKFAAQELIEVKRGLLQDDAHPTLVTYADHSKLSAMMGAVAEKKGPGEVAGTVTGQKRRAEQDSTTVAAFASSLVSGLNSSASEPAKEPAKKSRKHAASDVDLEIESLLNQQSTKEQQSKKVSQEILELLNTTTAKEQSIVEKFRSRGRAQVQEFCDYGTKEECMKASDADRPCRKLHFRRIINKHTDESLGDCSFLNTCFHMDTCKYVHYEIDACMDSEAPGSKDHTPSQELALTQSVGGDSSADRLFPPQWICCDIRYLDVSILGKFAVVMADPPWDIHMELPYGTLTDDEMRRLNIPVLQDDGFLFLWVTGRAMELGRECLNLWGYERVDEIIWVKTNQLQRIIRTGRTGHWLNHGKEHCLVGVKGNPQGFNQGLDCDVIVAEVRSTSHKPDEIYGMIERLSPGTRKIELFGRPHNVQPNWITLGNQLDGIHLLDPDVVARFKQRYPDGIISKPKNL
T1 sequence (Q9HCE5 whole entry partner): as the sequence (Q9HCE5 whole entry, further chain) above

Structure (SMILES)	MOLM-13 West. blot at 24h 2 μM comp conc. Degradation (%) of METTL3 (METTL3)	IC50 (METTL3-14)	TCFA amplitude (mean ± SEM) [1]	ECmax (nM) ± SD [1]	ECmax ([1]; TCFA, peak of the Hook curve)	viability at 72 h, 10 µM [2]	MOLM-13 West. blot at 24h 2 μM comp conc. Degradation (%) of METTL14 (METTL14)	viability at 72 h, 0.6 µM [2]	viability at 72 h, 1.25 µM [2]	viability at 72 h, […] [2]	viability at 72 h, 5 µM [2]
CC1(C)CCN(Cc2cc(F)c(N3CC(=O)NC4(CCN(c5cc(NCCCNC(=O)CCCCCCCCn6cc(CNc7cccc8c7C(=O)N(C7CCC(=O)NC7=O)C8=O)nn6)ncn5)CC4)C3)cc2F)CC1 (stereo not drawn) [Compound 12]	/ (Degradation <10% or stabilization)	67 ± 21 nM	0.7 ± 0.1	320 ± 160 nM	below 1 μM	94.3%	11 ± 27%	–	–	–	–
CC1(C)CCN(Cc2cc(F)c(N3CC(=O)NC4(CCN(c5cc(NCCCNC(=O)CCCCCCCCCCn6cc(CNc7cccc8c7C(=O)N(C7CCC(=O)NC7=O)C8=O)nn6)ncn5)CC4)C3)cc2F)CC1 (stereo not drawn) [Compound 13]	19 ± 20%	220 ± 40 nM	0.8 ± 0.0	1800 ± 250 nM	–	–	19 ± 13%	–	–	–	–
CC1(C)CCN(Cc2cc(F)c(N3CC(=O)NC4(CCN(c5cc(NCc6cccc(CNC(=O)CCCCCNc7cccc8c7C(=O)N(C7CCC(=O)NC7=O)C8=O)c6)ncn5)CC4)C3)cc2F)CC1 (stereo not drawn) [Compound 15]	/ (Degradation <10% or stabilization)	33 ± 4 nM	0.8 ± 0.1	640 ± 30 nM	–	84.6%	/ (Degradation <10% or stabilization)	91.2%	94.8%	97.2%	89.4%
CC1(C)CCN(Cc2cc(F)c(N3CC(=O)NC4(CCN(c5cc(NCc6cccc(CNC(=O)CCCCCCCCNc7cccc8c7CN(C7CCC(=O)NC7=O)C8=O)c6)ncn5)CC4)C3)cc2F)CC1 (stereo not drawn) [Compound 16]	24 ± 14%	67 ± 11 nM	1.0 ± 0.0	430 ± 180 nM	–	103%	39 ± 13%	–	–	–	–
CC1(C)CCN(Cc2cc(F)c(N3CC(=O)NC4(CCN(c5cc(NCc6cccc(CNC(=O)CCCCCCCCCCNc7cccc8c7CN(C7CCC(=O)NC7=O)C8=O)c6)ncn5)CC4)C3)cc2F)CC1 (stereo not drawn) [Compound 17]	/ (Degradation <10% or stabilization)	160 ± 20 nM	1.0 ± 0.0	920 ± 160 nM	–	106%	13 ± 6%	106%	109%	112%	106%
CC1(C)CCN(Cc2cc(F)c(N3CC(=O)NC4(CCN(c5cc(NCc6cccc(CNC(=O)CCn7cc(CNc8cccc9c8C(=O)N(C8CCC(=O)NC8=O)C9=O)nn7)c6)ncn5)CC4)C3)cc2F)CC1 (stereo not drawn) [Compound 18]	19 ± 13%	14 ± 3 nM	0.6 ± 0.1	80 ± 0 nM	–	105%	30 ± 12%	101%	105%	104%	102%
